Data: paper PMC11111408, “Concurrent inhibition of oncogenic and wild-type RAS-GTP for cancer therapy” (Nature, 2024)

Experiments:
RAS-less MEFs = experiment: Western blots of isogenic RAS-less MEF cells expressing KRAS variants or BRAF(V600E); type: cell-based, mouse; settings: 24 h, western blot
[1] = test system: NCI-H441, HPAC and SW620 CDX models; experiment: CDX models, RMC-7977 versus SHP2 and MEK inhibitors; settings: three KRAS^G12X models; RMC-7977 10 mg kg^−1 once daily, RMC-4550 20 mg kg^−1 every 2 days, cobimetinib 2.5 mg kg^−1 once daily, alone or in combination
Procedure: Data are mean ± s.e.m. of 3–18 mice per group.
Female BALB/c nude mice, NOD SCID and NSG mice 6-8 weeks old from Beijing Vital River/VR Laboratory Animal Co., LTD, Beijing AniKeeper Biotech Co., Ltd., Shanghai Sino-British SIPPR/BK Laboratory Animal Co., LTD and The Jackson Laboratory were used. Animals were housed in polycarbonate cages, in an environmentally monitored, well ventilated room maintained at a constant temperature of 20-26°C and relative humidity of 40-80%. Fluorescent lighting provided illumination approximately 12 hours per day. Each mouse was inoculated at the right flank with tumor cells (2x10^6-1x10^7) in 100-200 µL of media/PBS supplemented with Matrigel (1:1). Treatments were started when the average tumor size reached 100-250 mm^3. […] Mice on studies were weighed and tumor measurements collected twice weekly. Human primary cancer xenograft models were generated using fresh cancer tumor fragments obtained from hospitals with informed consent from the patients in accordance with protocols approved by the Hospital Institutional Ethical Committee (IEC). Tumor fragments were serial-passaged in BABL/c nude mice and then cryopreserved. Cryopreserved tumors were recovered by implantation in BALB/c nude mice and further serial passaged and frozen for study implantation use. Recovered tumor fragments of about 15-30 mm3 in size from each model were implanted into right flanks of Balb/c nude mice. Treatment started when average tumor volume reached 100-250mm^3. For efficacy study, Animals were assigned to study groups using stratified randomization based upon their tumor volumes (n=3-10/group). […] Animals were treated for 28 days (or up to 110 for selected models) or an earlier time if tumor burden reached humane endpoint. Mean ± s.e.m was plotted in the waterfall plots. The dashed line on waterfall plot indicates a 10% reduction in tumor volume from baseline. […] Body weights were collected twice a week during the study. For single-dose pharmacokinetic/pharmacodynamics (PK/PD) study, mice were randomized into treatment groups when mean tumor volume reached 400-600 mm^3.

NCI-H441 CDX tumours = experiment: NCI-H441 CDX efficacy study; type: in vivo, mouse; settings: NCI-H441 model, 10 mg kg^−1 daily oral, 28 days
Procedure: Xenograft studies were conducted at GenenDesign, Pharmaron, Wuxi AppTec, the laboratory of P. Lito, and the laboratory of C. Ambrogio. […] All procedures related to animal handling, care and treatment were conducted in compliance with all applicable regulations and guidelines of the relevant Institutional Animal Care and Use Committee (IACUC). […] Experimental details are supplied in the Supplementary Methods.

CCn1c(-c2cc(N3CCN(C4CC4)CC3)cnc2[C@H](C)OC)c2c3cc(ccc31)-c1csc(n1)C[C@H](NC(=O)[C@H]1[C@@H]3COC[C@@H]31)C(=O)N1CCC[C@H](N1)C(=O)OCC(C)(C)C2 [RMC-7977]
pERK suppression in RAS-less MEFs (RAS-less MEFs): suppressed pERK in all KRAS-expressing cells, but not in BRAF(V600E)-expressing RAS-less MEFs
anti-tumour activity [1]: deep regressions in all three models
mean tumour regression (NCI-H441 CDX tumours): 83%
